Measurements: US7897340B2, “Use of tumor susceptibilty gene 101 (TSG 101) as a prognostic and diagnostic marker” (The Board of Regents of the University of Texas System, priority 2006, dated 2011)
Entries after “also recorded” stand apart in the source; their conditions may differ.

Legend:
SKOV-3 cells [1] = assay: In vivo tumor formation assay in nude mice; set-up: species or system Balb/c athymic nude mice; conditions: siRNA-transfected SKOV-3 cells injected s.c. into flanks of nude mice, four mice, vs control siRNA cells
Method: SKOV-3 cells were trypsinized 3 days following transfection with either Control or TSG101 siRNA, and subsequently washed and resuspended in phosphate-buffered saline at 5×10^6 cells/ml. 200 μl (1×10^6 cells) of control or TSG101 transfected SKOV-3 cells were injected s.c. into the right and left flanks (respectively) of 4-6 week old Balb/c athymic nude mice (Jackson Laboratory, Bar Harbor, Me.). Mice were examined every 5 days until visible tumors appeared. Subsequently, tumor volume measurements were taken every 3-5 days, and mice were sacrificed 6 weeks after initial injections, and a final measurement of tumor volume was taken.
Further, in vivo tumor formation assay in nude mice was performed to determine if TSG101 knockdown affected the tumorigenicity of SKOV-3 cells. Seventy-two hours post transfection, SKOV-3 cells transfected either with TSG101 or control siRNA duplex were pair-wise injected subcutaneously into the left or right flanks, respectively, of the same BALB/c athymic nude mouse. Tumor growth was monitored for 6 weeks, at which time the tumors were harvested and tumor volume was measured. […] Due to the transient nature of the siRNA duplex, the actual effect of TSG101 gene silencing should be more prominent.

HIF-1α mRNA = HIF-1α mRNA by RT-PCR in SKOV-3 cells; assay type: cell-based, human; conditions: SKOV-3, 3 days following siRNA transfection
Method: Total RNA was isolated from cells using Trizol reagent (Invitrogen), and concentration was determined by absorbance at 260 nm. Real-Time PCR analysis was carried out using fluorescent TSG101 primers on an Applied Biosystems Prism 7000 Sequence Detection System. RT-PCR was carried out for TSG101 and HIF-1α using 1 μg of isolated total RNA under the following parameters: 94° C. 1 min, 57° C. 1 min and 72° C. 1.5 min, 35 cycles. Primers used for RT-PCR were TSG10 forward 5′-[…]-3′ (SEQ ID NO: 1), reverse 5′-TTTCCTCC TTCATCCGCCATCTC-3′ (SEQ ID NO: 2), CITED2 forward 5′-[…]-3′ (SEQ ID NO: 3), reverse 5′-[…]-3′ (SEQ ID NO: 4), HIF-1a ? forward 5′-[…]-3′ (SEQ ID NO: 5), reverse 5′-[…]-3′ (SEQ ID NO: 6).
A siRNA duplex specific for TSG101 (targeting TSG101 coding sequence 413-433) and a scrambled random control siRNA with matching GC content were obtained from Dharmacon. This specific TSG101 siRNA duplex (sense: CCUCCAGUCUUCUCUCGUCdTdT (SEQ ID NO: 7) and antisense: dTd[…] (SEQ ID NO: 8) have been successfully applied to suppress the expression of endogenous TSG101 in several high quality studies (Amit et al., 2004; Garrus et al., 2001; Hewitt et al., 2002; Ismaili et al., 2005). Transfection of the siRNAs was according to the manufacturer's instructions using Lipofectamine 2000 (Invitrogen).

SKOV-3 cells [2] = assay: Cell growth by counting; assay type: cell-based, human
Method: FIGS. 11A-F show association of suppression of TSG101 expression with cell cycle arrest and growth inhibition. In FIG. 11A, SKOV-3 cells were transfected with TSG101 and control siRNAs and RNA and protein were isolated 48 hours post transfection. Levels of mRNA were determined by semiquantitative RT-PCR and protein levels were determined by immunoblotting, respectively. Similar results were obtained from more than 4 independent experiments. In FIG. 11B, TSG101 or control siRNA transfected cells were plated at 2.5×10^4 cells/well in 6 well plates and cell growth was determined by counting over successive days. Each data point represents the average of 3 wells. Control and TSG101 knockdown SKOV-3 cells were stained with propidium iodide and analyzed by FACS on day 4 (FIG. 11C) or day 6 (FIG. 11D) following transfection. Sub G1 cells are calculated as a supplemental population. In FIG. 11E, SKOV-3 cell lysates were obtained 6 days following transfection with control or TSG101 siRNA. Caspase activity was determined using the fluorogenic substrate DEVD-AFC. In FIG. 11F, control and TSG101 knockdown SKOV-3 cells on day 5 following siRNA transfection were stained using Hoechst 22658 and Nuclear condensation was observed on a fluorescent microscope. Cells with condensed/fragmented DNA were quantified from at least 8 images, and represented as a percentage of the total number of cells. […]

SKOV-3 cells [3] = assay: Flow cytometry cell cycle analysis (propidium iodide); assay type: cell-based, human
Method: SKOV-3 cells transfected with either TSG101 or control siRNA were grown and harvested 4 and 6 days after transfection. 1×10^6 cells were trypsinized from 10 cm plates and transferred to FACS tubes, washed twice with PBS, and then fixed with 70% ethanol for 2 h on ice. Ethanol was removed by centrifugation and cells were rehydrated in PBS at room temperature for 5 min. Cells were centrifuged to remove PBS and stained with 1 ml of propidium iodide staining solution (0.1% Triton X-100, 0.2 mg/ml RNAase A, 0.05 mg/ml propidium iodide, prepared fresh) for 1 h at room temperature. Cellular DNA content was then determined on a Becton-Dickinson FACS-Scan apparatus.

p21 mRNA = p21 mRNA by RT-PCR in SKOV-3 cells; assay type: cell-based, human; conditions: SKOV-3, after 4 days following siRNA transfection
Method: Total RNA was isolated from cells using Trizol reagent (Invitrogen), and concentration was determined by absorbance at 260 nm. Semiquantitative RT-PCR was carried out using 1 μg of isolated total RNA. Primers used for RT-PCR were TSG101 forward 5′-[…]-3′ (SEQ ID NO: 1), reverse 5′-[…]-3′ (SEQ ID NO:2), p21 forward 5′-[…]-3′ (SEQ ID NO: 9), reverse 5′-CCGTTTTCGACCCTGAGAG-3′ (SEQ ID NO:10).

p21 = p21 protein by immunoblotting in SKOV-3 cells; assay type: cell-based, human; conditions: SKOV-3, after 4 days following siRNA transfection
Method: Cells transfected with either control or TSG101 siRNA were passaged and subsequently harvested on the appropriate days by trypsinizing cells, washing pelleted cells in PBS and then lysing cells in SDS lysis buffer. Protein concentration of cell lysates was assayed with the Bio-Rad protein assay reagent. […] Immunoblots were developed by enhanced chemiluminescence (Pierce, Rockford, Ill.).

TSG101 siRNA: siRNA duplex from Dharmacon targeting TSG101 coding sequence 413-433, SEQ ID NO: 7 and 8 (chain 1 CCUCCAGUCUUCUCUCGUCTT; chain 2 TTGGAGGUCAGAAGAGAGCAG; chemistry not fully specified; one strand is listed 3' to 5')
tumor volume (SKOV-3 cells [1]): significantly smaller; also recorded: reduced tumor growth | HIF-1α mRNA expression (HIF-1α mRNA): significantly down-regulated | cell number (cell growth) (SKOV-3 cells [2]; SKOV-3, counting over successive days, vs scrambled control siRNA): decrease dramatically in number beginning 5 days post transfection | rate of cell growth, initial observations (SKOV-3 cells [2]; SKOV-3, up to 72 h posttransfection): no significant cellular effects on cell growth | cellular DNA content vs control siRNA (SKOV-3 cells [3]; SKOV-3, day 4): very similar | sub-G1 apoptotic cell debris (SKOV-3 cells [3]; SKOV-3, day 4): not seen | G1/G0 phase cells (SKOV-3 cells [3]; SKOV-3, day 6): decrease | number of cells in G2/M phase (SKOV-3 cells [3]; SKOV-3, day 6): significant increase | sub-G1 apoptotic cell debris (SKOV-3 cells [3]; SKOV-3, day 6): significant population | p21 messenger RNA level (p21 mRNA): significantly upregulated | p21 protein level (p21): significantly upregulated
